In patent publication US4863904A, “Dipeptides as renin inhibitors” (priority 1984, dated 1989):

The molecules below were run against T1, human renin (Homo sapiens, UniProt P00797) (assay: Human renin-sheep renin substrate reaction system in vitro). Settings: IC50 (molar concentration), purified human renin, semipurified sheep renin substrate, pH 7.4, 37° C., 15 minutes; angiotensin I by radioimmunoassay.
T1 sequence (P00797 67-406): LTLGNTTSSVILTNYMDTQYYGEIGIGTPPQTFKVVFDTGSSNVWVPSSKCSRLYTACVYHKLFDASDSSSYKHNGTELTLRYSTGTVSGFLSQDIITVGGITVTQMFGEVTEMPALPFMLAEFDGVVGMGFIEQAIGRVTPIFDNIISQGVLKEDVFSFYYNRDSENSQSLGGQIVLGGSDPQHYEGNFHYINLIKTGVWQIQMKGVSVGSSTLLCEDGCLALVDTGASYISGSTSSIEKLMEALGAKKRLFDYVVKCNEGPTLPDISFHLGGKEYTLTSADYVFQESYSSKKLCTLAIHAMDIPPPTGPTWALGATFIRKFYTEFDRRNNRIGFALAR
Type: biochemical
Procedure: The mixture was incubated for 15 minutes on a water bath at 37° C., and the reaction mixture was allowed to stand for 5 minutes on a water bath at 100° C. to stop the reaction. After cooling, 200 μl of the solution was taken up and the amount of angiotensin I produced by the addition of renin was determined by radioimmunoassay. The inhibitory effect was calculated by the following equation. [formula]
As a control, the same procedure as above was carried out by using 50 μl of dimethyl sulfoxide alone in place of the 50 μl of dimethyl sulfoxide solution containing a dipeptide of the present invention.

Structure (SMILES)	IC50 [µM]
CC(C)C[C@@H](CO)NC(=O)[C@H](Cc1c[nH]cn1)NC(=O)C(CCCC(=O)c1ccccc1)Cc1cccc2ccccc12 (mixture of isomers)	13
CC(C)C[C@@H](CO)NC(=O)[C@H](Cc1c[nH]cn1)NC(=O)C(CCOCCc1ccccc1)Cc1cccc2ccccc12 (mixture of isomers) [N-[(±)-2-(1-Naphthylmethyl)-4-phenethoxybutyryl]-L-histidyl-L-leucinol]	15
CC(C)C[C@@H](CO)NC(=O)[C@H](Cc1c[nH]cn1)NC(=O)C(CCCCc1ccccc1)Cc1cccc2ccccc12 (mixture of isomers) [N-[(±)-2-(1-Naphthylmethyl)-6-phenylhexanoyl]-L-histidyl-L-leucinol]	5.4

Same assay, conditions: purified human renin, semipurified sheep renin substrate, pH 7.4, 37° C., 15 minutes; angiotensin I by radioimmunoassay; read-out: IC50 (molar concentration)

Structure (SMILES)	IC50 [µM]
CC(C)C[C@@H](CO)NC(=O)[C@H](Cc1c[nH]cn1)NC(=O)C(CCCCc1ccccc1)Oc1cccc2ccccc12 (mixture of isomers) [N-[(±)-2-(1-Naphthoxy)-6-phenylhexanoyl]-L-histidyl-L-leucinol]	76
CC(C)C[C@@H](C=O)NC(=O)[C@H](Cc1c[nH]cn1)NC(=O)C(CCOCCc1ccccc1)Cc1cccc2ccccc12 (mixture of isomers) [N-[(±)-2-(1-Naphthylmethyl)-4-phenethoxybutyryl]-L-histidyl-L-leucinal]	0.075
CC(C)C[C@@H](CO)NC(=O)[C@H](Cc1c[nH]cn1)NC(=O)C(CCCOc1ccccc1)Cc1cccc2ccccc12 (mixture of isomers) [N-[(±)-2-(1-Naphthylmethyl)-5-phenoxyvaleryl]-L-histidyl-L-leucinol]	26
CC(C)C[C@@H](C=O)NC(=O)[C@H](Cc1c[nH]cn1)NC(=O)C(CC=Cc1ccccc1)Cc1cccc2ccccc12 (mixture of isomers) [N-[(±)-2-(1-Naphthylmethyl)-5-phenyl-4-pentenoyl]-L-histidyl-L-leucinal]	0.22
CC(C)C[C@@H](CO)NC(=O)[C@H](Cc1c[nH]cn1)NC(=O)C(CC=Cc1ccccc1)Cc1cccc2ccccc12 (mixture of isomers) [N-[(±)-2-(1-Naphthylmethyl)-5-phenyl-4-pentenoyl]-L-histidyl-L-leucinol]	2.7
CC(C)C[C@@H](CO)NC(=O)[C@H](Cc1c[nH]cn1)NC(=O)C(CCCc1ccccc1)Cc1cccc2ccccc12 (mixture of isomers) [N-[(±)-2-(1-Naphthylmethyl)-5-phenylvaleryl]-L-histidyl-L-leucinol]	13
CC(C)C[C@@H](C=O)NC(=O)[C@H](Cc1c[nH]cn1)NC(=O)C(CC=CC=Cc1ccccc1)Cc1cccc2ccccc12 (mixture of isomers) [N-[(±)-2-(1-Naphthylmethyl)-7-phenyl-4,6-heptadienoyl]-L-histidyl-L-leucinal]	0.44
CC(C)C[C@@H](CO)NC(=O)[C@H](Cc1c[nH]cn1)NC(=O)C(CC=CC=Cc1ccccc1)Cc1cccc2ccccc12 (mixture of isomers) [N-[(±)-2-(1-Naphthylmethyl)-7-phenyl-4,6-heptadienoyl]-L-histidyl-L-leucinol]	12
CC(C)C[C@@H](C=O)NC(=O)[C@H](Cc1c[nH]cn1)NC(=O)C(Cc1ccccc1)C(=O)NCc1cccc2ccccc12 (mixture of isomers) [N-[(±)-2-(1-Naphthylmethylcarbamoyl)-3-phenylpropionyl]-L-histidyl-L-leucinal]	8.2
CC(C)C[C@@H](C=O)NC(=O)[C@H](Cc1c[nH]cn1)NC(=O)C(CNC(=O)Cc1cccc2ccccc12)Cc1ccccc1 (mixture of isomers) [N-[(±)-2-Benzyl-3-(1-naphthylacetamido)propionyl]-L-histidyl-L-leucinal]	7.6
CC(C)C[C@@H](C=O)NC(=O)[C@H](Cc1c[nH]cn1)NC(=O)C(CC(=O)NCc1cccc2ccccc12)Cc1ccccc1 (mixture of isomers) [N-[(±)-2-Benzyl-3-(1-naphthylmethylcarbamoyl)propionyl]-L-histidyl-L-leucinal]	7.2
CC(C)C[C@@H](C=O)NC(=O)[C@H](Cc1c[nH]cn1)NC(=O)C(CCCC(=O)c1ccccc1)Cc1cccc2ccccc12 (mixture of isomers) [N-[(±)-5-Benzoyl-2-(1-naphthylmethyl)valeryl]-L-histidyl-L-leucinal]	0.19
CC(C)C[C@@H](CO)NC(=O)[C@H](Cc1c[nH]cn1)NC(=O)C(CC(=O)NCCc1ccccc1)Cc1cccc2ccccc12 (single isomer, unassigned) [N-[2-(1-Naphthylmethyl)-3-(phenethylcarbamoyl)propionyl]-L-histidyl-L-leucinol]	25
CC(C)C[C@@H](CO)NC(=O)[C@H](Cc1c[nH]cn1)NC(=O)C(CC(=O)Nc1ccccc1)Cc1cccc2ccccc12 (single isomer, unassigned) [N-[2-(1-Naphthylmethyl)-3-(phenylcarbamoyl)propionyl]-L-histidyl-L-leucinol(isomer A)]	65
CC(C)C[C@@H](CO)NC(=O)[C@H](Cc1c[nH]cn1)NC(=O)C(CC(=O)Nc1ccccc1)Cc1cccc2ccccc12 (single isomer, unassigned) [N-[2-(1-Naphthylmethyl)-3-(phenylcarbamoyl)propionyl]-L-histidyl-L-leucinol(isomer B)]	18
CC(C)C[C@@H](CO)NC(=O)[C@H](Cc1c[nH]cn1)NC(=O)C(CNCCCc1ccccc1)Cc1cccc2ccccc12 (single isomer, unassigned) [N-[2-(1-naphthylmethyl)-3-(3-phenylpropylamino)propionyl]-L-histidyl-L-leucinol (isomer A)]	47
CC(C)C[C@@H](C=O)NC(=O)[C@H](Cc1c[nH]cn1)NC(=O)C(CC(=O)NCCc1ccccc1)Cc1cccc2ccccc12 (single isomer, unassigned) [N-[2-(1-naphthylmethyl)-3-(phenethylcarbamoyl)propionyl]-L-histidyl-L-leucinal (isomer A)]	0.041
CC(C)C[C@@H](CO)NC(=O)[C@H](Cc1c[nH]cn1)NC(=O)C(CC(=O)NCCc1ccccc1)Cc1cccc2ccccc12 (single isomer, unassigned) [N-[2-(1-naphthylmethyl)-3-(phenethylcarbamoyl)propionyl]-L-histidyl-L-leucinol (isomer A)]	7.4
O=C(CC(Cc1cccc2ccccc12)C(=O)N[C@@H](Cc1c[nH]cn1)C(=O)N[C@H](CO)Cc1ccccc1)NCCc1ccccc1 (single isomer, unassigned) [N-[2-(1-naphthylmethyl)-3-(phenethylcarbamoyl)propionyl]-L-histidyl-L-phenylalaninol (isomer A)]	91
CC(C)C[C@@H](C=O)NC(=O)[C@H](Cc1c[nH]cn1)NC(=O)C(CC(=O)NCc1ccccc1)Cc1cccc2ccccc12 (single isomer, unassigned) [N-[3-(Benzylcarbamoyl)-2-(1-naphthylmethyl)propionyl]-L-histidyl-L-leucinal(isomer A)]	0.07
CC(C)C[C@@H](C=O)NC(=O)[C@H](Cc1c[nH]cn1)NC(=O)C(CC(=O)NCc1ccccc1)Cc1cccc2ccccc12 (single isomer, unassigned) [N-[3-(Benzylcarbamoyl)-2-(1-naphthylmethyl)propionyl]-L-histidyl-L-leucinal(isomer B)]	4.9
CC(C)C[C@@H](CO)NC(=O)[C@H](Cc1c[nH]cn1)NC(=O)C(CC(=O)NCc1ccccc1)Cc1cccc2ccccc12 (single isomer, unassigned) [N-[3-(Benzylcarbamoyl)-2-(1-naphthylmethyl)propionyl]-L-histidyl-L-leucinol(isomer A)]	19
CC(C)C[C@@H](CO)NC(=O)[C@H](Cc1c[nH]cn1)NC(=O)C(CC(=O)NCc1ccccc1)Cc1cccc2ccccc12 (single isomer, unassigned) [N-[3-(Benzylcarbamoyl)-2-(1-naphthylmethyl)propionyl]-L-histidyl-L-leucinol(isomer B)]	27
CC(C)C[C@@H](CO)NC(=O)[C@H](Cc1c[nH]cn1)NC(=O)C(CC(=O)NCCc1c[nH]c2ccccc12)Cc1cccc2ccccc12 (single isomer, unassigned) [N-{3-[2-(3-Indolyl)ethylcarbamoyl]-2-(1-naphthylmethyl)propionyl}-L-histidyl-L-leucinol (isomer A)]	28
CC(C)C[C@@H](CO)NC(=O)[C@H](Cc1c[nH]cn1)NC(=O)C(CC(=O)NCCc1c[nH]c2ccccc12)Cc1cccc2ccccc12 (single isomer, unassigned) [N-{3-[2-(3-Indolyl)ethylcarbamoyl]-2-(1-naphthylmethyl)propionyl}-L-histidyl-L-leucinol (isomer B)]	6.6
CC(C)C[C@@H](C=O)NC(=O)[C@H](Cc1c[nH]cn1)NC(=O)C(Cc1ccccc1)Cc1ccccc1 [N-(2-Benzyl-3-phenylpropionyl)-L-histidyl-L-leucinal]	1.1
CC(C)C[C@@H](C=O)NC(=O)[C@H](Cc1c[nH]cn1)NC(=O)C(CCCCc1ccccc1)Cc1cccc2ccccc12 (stereo partly drawn) [N-[2-(1-Naphthylmethyl)-6-phenylhexanoyl]-L-histidyl-L-leucinal]	0.14
CC(C)C[C@@H](CO)NC(=O)[C@H](Cc1c[nH]cn1)NC(=O)C(=Cc1cccc2ccccc12)CC(=O)NCCc1ccccc1 [N-[2-(1-Naphthylmethylene)-3-(phenethylcarbamoyl)propionyl]-L-histidyl-L-leucinol]	69
